Test results: ChEMBL document CHEMBL1201862, “PubChem BioAssay data set” (2004)
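Exposure lasted 48 hours, with cells grown in 96-well plates and compounds tested at five concentrations. At the GI50, growth is halved.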 Calls of active or inactive are those of the source. Rule as the data show it: active = GI50 up to about 1.1 µM and inactive = higher.

Columns and labels:
Assay in all cases: growth of human tumour cells (NCI), 48 h
[1] = test system: SK-MEL-2
[2] = test system: UACC-62
[3] = test system: UO-31
[4] = test system: SK-MEL-28
[5] = test system: RPMI-8226
[6] = test system: SF-539
[7] = test system: HT-29
[8] = test system: 786-0
[9] = test system: LOX IMVI
[10] = test system: TK-10
[11] = test system: HOP-62
[12] = test system: CAKI-1
[13] = test system: A549
[14] = test system: SNB-75
[15] = test system: K562
[16] = test system: M14
[17] = test system: NCI/ADR-RES
[18] = test system: DU-145
[19] = test system: MDA-N

Measured: GI50

C#CCOCn1cnc2ncnc(N)c21
inactive: [1] > 100 µM | [2] > 100 µM | [3] > 100 µM | [4] > 100 µM | [5] > 100 µM | [6] > 100 µM | [7] > 100 µM | [8] > 100 µM | [9] > 100 µM | [10] > 100 µM | [11] > 100 µM | [12] > 100 µM | [13] > 100 µM | [14] > 100 µM | [15] > 100 µM

CC(=O)N(C)OC(=O)CC(=O)c1ccccc1
inactive: [2] > 100 µM | [3] > 100 µM | [4] > 100 µM | [16] > 100 µM | [5] > 100 µM | [6] > 100 µM | [7] > 100 µM | [8] > 100 µM | [9] > 100 µM | [10] > 100 µM | [11] > 100 µM | [12] > 100 µM | [13] > 100 µM | [14] 76.9 µM | [15] > 100 µM

N[C@H](C(=O)O)[C@H](Cl)CC(=O)O
inactive: [1] > 100 µM | [2] > 100 µM | [3] > 100 µM | [4] > 100 µM | [16] > 100 µM | [6] > 100 µM | [7] > 100 µM | [8] > 100 µM | [9] > 100 µM | [10] > 100 µM | [11] > 100 µM | [12] > 100 µM | [13] > 100 µM | [14] > 100 µM | [15] > 100 µM

COc1ccccc1NC(=O)C1=C(C)NC(C)=C(C(=O)Nc2ccccc2OC)C1c1ccc(C2C(C(=O)Nc3ccccc3OC)=C(C)NC(C)=C2C(=O)Nc2ccccc2OC)cc1
inactive: [1] 2.08 µM | [2] 1.68 µM | [3] 4.14 µM | [4] 2.44 µM | [16] 1.61 µM | [5] 2.43 µM | [6] 1.68 µM | [7] 1.71 µM | [8] 1.78 µM | [9] 1.29 µM | [10] 11.5 µM | [11] 6.35 µM | [12] 3.13 µM | [13] > 27.8 µM | [14] 10.2 µM | [15] 2.18 µM

Cc1nc(=O)[nH]c2[nH][nH]c(=O)c12
inactive: [1] > 100 µM | [2] > 100 µM | [4] > 100 µM | [16] > 100 µM | [5] > 100 µM | [6] > 100 µM | [7] > 100 µM | [8] > 100 µM | [9] > 100 µM | [10] > 100 µM | [11] > 100 µM | [12] > 100 µM | [13] > 100 µM | [15] > 100 µM

N#C/C1=C(\N)CCSSSC1
inactive: [1] 25.8 µM | [3] 56.4 µM | [4] 43.6 µM | [16] 28.8 µM | [5] 44.8 µM | [6] 33.4 µM | [7] 31 µM | [8] 35.8 µM | [9] 42.4 µM | [10] > 100 µM | [11] 29.2 µM | [12] 58.7 µM | [13] 45.2 µM | [14] 42.3 µM | [15] 55.3 µM

COc1cccc(C2c3cc4c(cc3OC(C)(N3CCCC3)C2C)OCO4)c1 (stereo unspecified)
inactive: [1] 2.45 µM | [2] 5.38 µM | [3] 13.1 µM | [4] 20.3 µM | [16] 4.12 µM | [6] 13.9 µM | [7] 3.77 µM | [8] 26.1 µM | [9] 10.6 µM | [17] 6.9 µM | [18] 20.7 µM | [10] 10.9 µM | [19] 2.13 µM | [11] 6.62 µM | [12] 17.1 µM | [13] 7.55 µM | [14] 3.18 µM | [15] 58.3 µM

COc1cc(C2c3cc4c(cc3[C@@H](Nc3ccccc3)C3CO[C@@H](OC)[C@H]23)OCO4)cc(OC)c1O (stereo partly specified)
inactive: [3] 3.01 µM | [4] 19.6 µM | [16] 10.4 µM | [5] 3.01 µM | [6] 5.41 µM | [7] 4.82 µM | [8] 5.14 µM | [17] 14.6 µM | [10] 9.46 µM | [11] 7.11 µM | [13] 2.13 µM | [14] 7.41 µM | [15] 6.78 µM

N#CC1(Cc2ccccc2Cl)c2ccccc2C=CN1C(=O)c1ccccc1 (stereo unspecified)
inactive: [1] > 100 µM | [2] > 100 µM | [3] 51.9 µM | [4] 54.8 µM | [16] > 100 µM | [5] 66.5 µM | [6] > 100 µM | [7] 75.5 µM | [8] > 100 µM | [9] > 100 µM | [10] 46.8 µM | [11] > 100 µM | [13] 90.8 µM | [14] > 100 µM | [15] 25.1 µM

Cc1ccc(S(=O)(=O)c2ccccn2)cc1
inactive: [1] > 100 µM | [2] > 100 µM | [3] > 100 µM | [4] > 100 µM | [16] > 100 µM | [5] > 100 µM | [6] > 100 µM | [7] > 100 µM | [8] > 100 µM | [9] > 100 µM | [10] > 100 µM | [11] > 100 µM | [12] > 100 µM | [13] > 100 µM | [14] 90.8 µM | [15] > 100 µM

COc1cc2c(cc1OC)-c1c3cc(O)ccc3nn[n+]1CC2
inactive: [2] > 100 µM | [4] > 100 µM | [16] > 100 µM | [5] > 100 µM | [6] > 100 µM | [7] > 100 µM | [8] > 100 µM | [9] > 100 µM | [10] > 100 µM | [11] > 100 µM | [13] > 100 µM | [14] > 100 µM | [15] > 100 µM

[N-]=[N+]=NC1(c2ccccc2)C(=O)C(Cl)=C(c2ccccc2)N(c2ccccc2)C1=O (stereo unspecified)
inactive: [1] > 100 µM | [2] > 100 µM | [3] 97.3 µM | [4] > 100 µM | [16] > 100 µM | [6] > 100 µM | [7] > 100 µM | [8] > 100 µM | [9] > 100 µM | [10] > 100 µM | [11] > 100 µM | [12] > 100 µM | [13] > 100 µM | [14] > 100 µM | [15] 46.8 µM

CN(C(=O)/C=C/c1ccccc1)C1C2CN3CCC(O2)C13 (stereo unspecified)
inactive: [1] > 100 µM | [2] > 100 µM | [3] > 100 µM | [4] > 100 µM | [16] > 100 µM | [6] > 100 µM | [7] > 100 µM | [8] > 100 µM | [9] > 100 µM | [10] > 100 µM | [11] > 100 µM | [12] > 100 µM | [13] > 100 µM | [14] > 100 µM | [15] > 100 µM

O=C1NC2(CCCC2)C(=O)C12CCCC2
inactive: [1] > 100 µM | [2] > 100 µM | [3] > 100 µM | [4] > 100 µM | [16] > 100 µM | [5] > 100 µM | [6] > 100 µM | [7] > 100 µM | [8] > 100 µM | [9] > 100 µM | [10] > 100 µM | [11] > 100 µM | [12] > 100 µM | [13] > 100 µM | [14] > 100 µM | [15] > 100 µM

N#Cc1ccccc1Sc1ccccc1N
inactive: [1] > 100 µM | [2] 50.1 µM | [3] 45.6 µM | [4] > 100 µM | [6] > 100 µM | [7] > 100 µM | [8] > 100 µM | [9] > 100 µM | [10] > 100 µM | [11] > 100 µM | [12] 36 µM | [13] 67.3 µM | [15] 70.6 µM

CC(C)OP(=O)(OC(C)C)/C(=N/Nc1ccc([N+](=O)[O-])cc1)NNC(=O)c1ccccc1
inactive: [1] 43.2 µM | [2] 20.5 µM | [3] 41.5 µM | [4] 40.6 µM | [16] 33.2 µM | [5] 29.7 µM | [6] > 100 µM | [8] > 100 µM | [9] 21.3 µM | [10] > 100 µM | [11] > 100 µM | [12] 76.6 µM | [13] 55.6 µM | [14] 73.5 µM | [15] 29.8 µM

CC(C)(C)NNC(=O)CCn1[nH]c(=O)c(Cl)c(Cl)c1=O
inactive: [1] > 100 µM | [2] > 100 µM | [3] > 100 µM | [4] > 100 µM | [16] > 100 µM | [5] > 100 µM | [6] > 100 µM | [7] > 100 µM | [8] > 100 µM | [9] > 100 µM | [10] > 100 µM | [11] > 100 µM | [12] > 100 µM | [13] > 100 µM | [14] > 100 µM | [15] > 100 µM

FC(F)(F)C1(Cl)C(c2ccccc2)=C1c1ccccc1
inactive: [1] 15 µM | [2] 14 µM | [3] 17.9 µM | [4] 14.9 µM | [16] 12.8 µM | [5] 29.7 µM | [6] 15.6 µM | [7] 15.8 µM | [8] 17 µM | [9] 11.5 µM | [10] 20.9 µM | [11] 18.3 µM | [12] 12.6 µM | [13] 15.1 µM | [14] > 10 µM | [15] 12.2 µM
